Experimental data from US7468384B2, “Microbicidal composition” (Rohm and Haas Company, priority 2004, dated 2008).

What was measured:
Type in all cases: cell-based
[1] = test system: Escherichia coli (E. coli—ATCC #8739); experiment: Synergy test, microtiter plate high resolution MIC assay, bacterium; conditions: E. coli 8739, M9GY; for Qa: BIT concentration giving end point (MIC); for Qa (BIT at end point, MIC): alone where Qb = 0
Outline: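 High-resolution MICs were found by adding microbicide to one microtitre column and making ten-fold dilutions with an automated liquid handler, giving endpoints from 2 ppm to 10,000 ppm active ingredient. The MIC is the lowest concentration that prevents growth. E. coli 8739, at roughly 5×10^6 cells per mL, grew in glucose/yeast-extract-supplemented minimal salt medium (M9GY). Values above one indicate antagonism.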

[2] = test system: Candida albicans (C. albicans—ATCC 10231); experiment: Synergy test, microtiter plate high resolution MIC assay, yeast; conditions: C. albicans 10231, PDB; for Qa: BIT concentration giving end point (MIC); for Qa (BIT at end point, MIC): alone where Qb = 0
Outline: (§1)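 Values derive from Kull synergy index (Qa/QA + Qb/QB, ppm MIC endpoints, alone vs in mixture). Endpoints from high-resolution microtiter MICs spanning 2–10,000 ppm; bacterium ~5×10^6/mL in TSB or M9GY, yeast and mold 5×10^5/mL in PDB.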

[3] = test system: Aspergillus niger (A. niger—ATCC 16404); experiment: Synergy test, microtiter plate high resolution MIC assay, mold; parameters: key to SI (calculated synergy index) / SI (synergy index): SI = Qa/QA + Qb/QB (mixture vs. alone end-point concentrations); conditions: A. niger 16404, PDB; for Qa: BIT concentration giving end point (MIC); for Qa (BIT at end point, MIC): alone where Qb = 0
Outline: as §1

[4] = test system: Pseudomonas aeruginosa (P. aeruginosa—ATCC #15442); experiment: Synergy test, microtiter plate high resolution MIC assay, bacterium; parameters: key to SI (calculated synergy index) / SI (synergy index): SI = Qa/QA + Qb/QB (mixture vs. alone end-point concentrations); conditions: P. aeruginosa 15442, M9GY; for Qa: BIT concentration giving end point (MIC); for Qa (BIT at end point, MIC): alone where Qb = 0
Outline: as §1

[5] = alone or mixed with Imidalozidinyl urea, 48 hours
[6] = alone or mixed with caprylyl glycol, 24 hours
[7] = alone or mixed with diazolidinyl urea, 48 hours
[8] = alone or mixed with glutaraldehyde, 24 hours
[9] = Table 25, BIT with sodium dehydroacetic acid, 24 hours
[10] = Table 26, BIT with sodium benzoate, 24 hours
[11] = synergy index BIT + Imidalozidinyl urea, 48 hours
[12] = synergy index BIT + caprylyl glycol, 24 hours
[13] = synergy index BIT + diazolidinyl urea, 48 hours
[14] = synergy index BIT + glutaraldehyde, 24 hours
[15] = alone or mixed with benzyl alcohol, 48 hours
[16] = Table 24, BIT with Cis-1-(3-chloroallyl)-3,5,7-triaza-1-azoniaadamantane chloride, 24 hours
[17] = synergy index BIT + benzyl alcohol, 48 hours

O=c1[nH]sc2ccccc12 [BIT, 1,2-benzisothiazolin-3-one]
Qa [1, 5]: 7.5 ppm | Qa ([1]; alone or mixed with benzyl alcohol, 24 hours): 7.5 ppm | Qa [1, 6]: 7.5 ppm | Qa [1, 7]: 8 ppm | Qa [1, 8]: 10 ppm | Qa (BIT at end point, MIC) ([1]; Table 24, BIT with Cis-1-(3-chloroallyl)-3,5,7-triaza-1-azoniaadamantane chloride, 48 hours): 10 ppm | SI (synergy index) ([1]; Table 24, 48 hours): 1.00 | Qa (BIT at end point, MIC) [1, 9]: 7.5 ppm | SI (synergy index) ([1]; Table 25, 24 hours): 1.00 | Qa (BIT at end point, MIC) [1, 10]: 7.5 ppm | SI (synergy index) ([1]; Table 26, 24 hours): 1.00 | SI [1, 11]: 1.00 | SI ([1]; synergy index BIT + benzyl alcohol, 24 hours): 1.00 | SI [1, 12]: 1.00 | SI [1, 13]: 1.00 | SI [1, 14]: 1.00 | Qa ([2]; alone or mixed with Imidalozidinyl urea, 24 hours): 30 ppm | Qa [2, 15]: 30 ppm | Qa [2, 6]: 30 ppm | Qa ([2]; alone or mixed with diazolidinyl urea, 24 hours): 30 ppm | Qa [2, 8]: 30 ppm | Qa (BIT at end point, MIC) [2, 16]: 20 ppm | SI (synergy index) ([2]; Table 24, 24 hours): 1.00 | Qa (BIT at end point, MIC) [2, 9]: 30 ppm | SI (synergy index) ([2]; Table 25, 24 hours): 1.00 | Qa (BIT at end point, MIC) ([2]; Table 26, BIT with sodium benzoate, 48 hours): 30 ppm | SI (synergy index) ([2]; Table 26, 48 hours): 1.00 | SI ([2]; synergy index BIT + Imidalozidinyl urea, 24 hours): 1.00 | SI [2, 17]: 1.00 | SI [2, 12]: 1.00 | SI ([2]; synergy index BIT + diazolidinyl urea, 24 hours): 1.00 | SI [2, 14]: 1.00 | Qa ([3]; alone or mixed with 2,2′-dithiobis(N-methylbenzamide), 3 days): 20 ppm | Qa ([3]; alone or mixed with EDTA, 4 days): 20 ppm | Qa ([3]; alone or mixed with Imidalozidinyl urea, 3 days): 20 ppm | Qa ([3]; alone or mixed with benzyl alcohol, 1 week): 50 ppm | Qa ([3]; alone or mixed with caprylyl glycol, 1 week): 50 ppm | Qa ([3]; alone or mixed with chlorphenesin, 1 week): 50 ppm | Qa ([3]; alone or mixed with diazolidinyl urea, 3 days): 20 ppm | Qa ([3]; alone or mixed with ethylparaben, 3 days): 20 ppm | Qa ([3]; alone or mixed with glutaraldehyde, 3 days): 20 ppm | Qa ([3]; alone or mixed with methylparaben, 4 days): 30 ppm | Qa ([3]; alone or mixed with phenoxyethanol, 3 days): 20 ppm | SI (calculated synergy index) ([3]; Table 8, 1 week): 1.00 | Qa: end-point activity (MIC) of BIT in the mixture (BIT alone, QA, where Qb = 0) ([3]; Table 8, 1 week, B = Benzalkonium chloride): 30 ppm | SI (calculated synergy index) ([3]; Table 9, 4 days): 1.00 | Qa: end-point activity (MIC) of BIT in the mixture (BIT alone, QA, where Qb = 0) ([3]; Table 9, 4 days, B = Benzethonium chloride): 30 ppm | SI (synergy index) ([3]; Table 21, 4 days): 1.00 | Qa (BIT at end point, MIC) ([3]; Table 21, BIT with Linoleamidopropyl PG-dimonium chloride phosphate, 4 days): 30 ppm | SI (synergy index) ([3]; Table 22, 1 week): 1.00 | Qa (BIT at end point, MIC) ([3]; Table 22, BIT with Cocamidopropyl PG-dimonium chloride phosphate, 1 week): 30 ppm | SI (synergy index) ([3]; Table 23, 3 days): 1.00 | Qa (BIT at end point, MIC) ([3]; Table 23, BIT with propylparaben, 3 days): 20 ppm | SI (synergy index) ([3]; Table 24, 3 days): 1.00 | Qa (BIT at end point, MIC) ([3]; Table 24, BIT with Cis-1-(3-chloroallyl)-3,5,7-triaza-1-azoniaadamantane chloride, 3 days): 30 ppm | SI (synergy index) ([3]; Table 25, 1 week): 1.00 | Qa (BIT at end point, MIC) ([3]; Table 25, BIT with sodium dehydroacetic acid, 1 week): 30 ppm | SI (synergy index) ([3]; Table 26, 1 week): 1.00 | Qa (BIT at end point, MIC) ([3]; Table 26, BIT with sodium benzoate, 1 week): 30 ppm | SI (synergy index) ([3]; Table 27, 3 days): 1.00 | Qa (BIT at end point, MIC) ([3]; Table 27, BIT with Sodium hydroxymethylglycinate, 3 days): 20 ppm | SI (synergy index) ([3]; Table 28, 1 week): 1.00 | Qa (BIT at end point, MIC) ([3]; Table 28, BIT with zinc pyrithione, 1 week): 30 ppm | SI ([3]; synergy index BIT + 2,2′-dithiobis(N-methylbenzamide), 3 days): 1.00 | SI ([3]; synergy index BIT + EDTA, 4 days): 1.00 | SI ([3]; synergy index BIT + Imidalozidinyl urea, 3 days): 1.00 | SI ([3]; synergy index BIT + benzyl alcohol, 1 week): 1.00 | SI ([3]; synergy index BIT + caprylyl glycol, 1 week): 1.00 | SI ([3]; synergy index BIT + chlorphenesin, 1 week): 1.00 | SI ([3]; synergy index BIT + diazolidinyl urea, 3 days): 1.00 | SI ([3]; synergy index BIT + ethylparaben, 3 days): 1.00 | SI ([3]; synergy index BIT + glutaraldehyde, 3 days): 1.00 | SI ([3]; synergy index BIT + methylparaben, 4 days): 1.00 | SI ([3]; synergy index BIT + phenoxyethanol, 3 days): 1.00 | Qa ([4]; alone or mixed with 2,2′-dithiobis(N-methylbenzamide), 48 hours): 100 ppm | Qa [4, 5]: 100 ppm | Qa [4, 15]: 100 ppm | Qa [4, 6]: 100 ppm | Qa ([4]; alone or mixed with chlorphenesin, 72 hours): 100 ppm | Qa [4, 7]: 100 ppm | Qa ([4]; alone or mixed with ethylparaben, 48 hours): 100 ppm | Qa ([4]; alone or mixed with glutaraldehyde, 48 hours): 60 ppm | Qa ([4]; alone or mixed with methylparaben, 48 hours): 100 ppm | Qa ([4]; alone or mixed with phenoxyethanol, 48 hours): 100 ppm | SI (calculated synergy index) ([4]; Table 8, 48 hours): 1.00 | Qa: end-point activity (MIC) of BIT in the mixture (BIT alone, QA, where Qb = 0) ([4]; Table 8, 48 hours, B = Benzalkonium chloride): 100 ppm | SI (calculated synergy index) ([4]; Table 9, 48 hours): 1.00 | Qa: end-point activity (MIC) of BIT in the mixture (BIT alone, QA, where Qb = 0) ([4]; Table 9, 48 hours, B = Benzethonium chloride): 100 ppm | Qa (BIT at end point, MIC) ([4]; Table 21, BIT with Linoleamidopropyl PG-dimonium chloride phosphate, 48 hours): 100 ppm | SI (synergy index) ([4]; Table 21, 48 hours): 1.00 | Qa (BIT at end point, MIC) ([4]; Table 22, BIT with Cocamidopropyl PG-dimonium chloride phosphate, 72 hours): 100 ppm | SI (synergy index) ([4]; Table 22, 72 hours): 1.00 | Qa (BIT at end point, MIC) ([4]; Table 23, BIT with propylparaben, 24 hours): 80 ppm | SI (synergy index) ([4]; Table 23, 24 hours): 1.33 | Qa (BIT at end point, MIC) [4, 16]: 60 ppm | SI (synergy index) ([4]; Table 24, 24 hours): 1.00 | Qa (BIT at end point, MIC) [4, 9]: 60 ppm | SI (synergy index) ([4]; Table 25, 24 hours): 1.00 | Qa (BIT at end point, MIC) [4, 10]: 60 ppm | SI (synergy index) ([4]; Table 26, 24 hours): 1.00 | Qa (BIT at end point, MIC) ([4]; Table 27, BIT with Sodium hydroxymethylglycinate, 24 hours): 60 ppm | SI (synergy index) ([4]; Table 27, 24 hours): 1.00 | Qa (BIT at end point, MIC) ([4]; Table 28, BIT with zinc pyrithione, 48 hours): 100 ppm | SI (synergy index) ([4]; Table 28, 48 hours): 1.00 | SI ([4]; synergy index BIT + 2,2′-dithiobis(N-methylbenzamide), 48 hours): 1.00 | SI [4, 11]: 1.00 | SI [4, 17]: 1.00 | SI [4, 12]: 1.00 | SI ([4]; synergy index BIT + chlorphenesin, 72 hours): 1.00 | SI [4, 13]: 1.00 | SI ([4]; synergy index BIT + ethylparaben, 48 hours): 1.00 | SI ([4]; synergy index BIT + glutaraldehyde, 48 hours): 1.00 | SI ([4]; synergy index BIT + methylparaben, 48 hours): 1.00 | SI ([4]; synergy index BIT + phenoxyethanol, 48 hours): 1.00
